# Reference: US11613538B2, “Method of inhibiting or reducing a viral infection” (PTC Therapeutics, Inc., priority 2009, dated 2023)
# Marks after values point to notes of the source that are not given here.
# How the values were obtained:
# human VEGF = assay: Intra-tumor and plasma human VEGF in HT1080 xenograft mice (ELISA); type: in vivo; settings: for Mean difference in human plasma VEGF (%) on Day 14 / Mean difference in human tumor VEGF (%) at Day 14: 14 days
# Excerpt: Human HT1080 cells (5×10^6 cells/mice) were implanted subcutaneously into male athymic nude mice. Human HT1080 cells constitutively produce human VEGF. Treatment with vehicle alone or Compound 1205 was initiated when the median tumor volume was approximately 311±88 mm^3. Table 3 and Table 4 provide the study design for assessing tumor and pathological plasma VEGF concentrations—each group in each study included eight (8) mice. When the tumors in vehicle-treated mice had reached the target size of about 1200 mm^3 for study #21 and about 1500 mm^3 for study #23, all mice in the study were sacrificed, and excised tumors were homogenized in buffer containing protease inhibitors. Both intra-tumor and plasma human VEGF levels were measured using an ELISA that recognizes human VEGF121 and VEGF165. Intra-tumor VEGF levels were normalized to the total tumor protein concentration and plasma VEGF levels were expressed in pg/mL. Because smaller tumors produce less VEGF per mg of tumor protein, intra-tumor VEGF levels were normalized to tumor size.
# HT1080 xenografts = assay: HT1080 xenograft tumor growth in male athymic nude mice; type: in vivo
# Excerpt: Experimental Design. HT1080 cells (5×10^6 cells/mouse) were implanted subcutaneously in male athymic nude mice. […] For comparison, Compound #10 was included in this study.
# murine kidney VEGF = assay: Mouse kidney VEGF levels in tumor-bearing mice; type: in vivo; settings: 0.5 mg/kg (28 days) or 3 mg/kg (32 days); in words
# Method: After mouse tumors reached 1500 mm^3, mice were sacrificed and tissues were collected at the time of necropsy, homogenized, and analyzed. On average, mice treated with Compound 1205 at 0.5 mg/kg were on study for 28 days, and mice treated with Compound 1205 at 3 mg/kg were on study for 32 days.
# HT1080 cells = assay: Cell cycle analysis of HT1080 cells (propidium iodide, flow cytometry); type: cell-based, human; settings: 10 nM, 18 hours, normoxic conditions; in words
# Method: During the in vitro evaluation of Compound 1205 effects on VEGF expression, an examination of its actions on tumor cell cycling was performed. HT1080 cells were incubated under normoxic conditions (21% oxygen) for 18 hours with vehicle (0.5% DMSO) alone, or with 10 nM of Compound 1205. After treatment, cells were trypsinized, and stained with propidium iodide (PI) dye to measure DNA content of individual cells by flow cytometry. Output comprised histograms showing relative DNA content in 10,000 cells.
# [1] = test system: hypoxia-induced VEGF production in HeLa cells; assay: cells; type: cell-based, human
# [2] = Bioavailability in vivo of aqueous suspension; settings: in words
# Excerpt: It is anticipated that Compound 1205 can be clinically administered via a solid-dosage form. For all the studies outlined herein, Compound 1205 was lyophilized prior to formulation to minimize batch-to-batch variations in particle-size.
# [3] = Plasma trough levels in patients having a variety of cancers; type: in vivo, human; settings: combination therapy with Compound #10; in words
smiles,measurement,setting,value
O=C(Oc1ccc(Cl)cc1)N1CCc2c([nH]c3ccc(Cl)cc23)[C@@H]1c1ccc(OCC[C@H](O)CO)cc1 [Compound 1205],Inhibition of plasma VEGF levels,human VEGF; 0.5 or 3 mg/kg QD,more than 95%
same,Inhibition of tumor VEGF levels,human VEGF; 0.5 or 3 mg/kg QD,more than 95%
same,Mean difference in human plasma VEGF (%) on Day 14,"human VEGF; Study #21, 0.5 mg/kg QD",97%**
same,Mean difference in human tumor VEGF (%) at Day 14,"human VEGF; Study #21, 0.5 mg/kg QD",95%**
same,Mean difference in human plasma VEGF (%) on Day 14,"human VEGF; Study #21, 3 mg/kg QD",99%
same,Mean difference in human tumor VEGF (%) at Day 14,"human VEGF; Study #21, 3 mg/kg QD",98%**
same,Mean difference in human plasma VEGF (%) on Day 14,"human VEGF; Study #23, 1 mg/kg QD",100%**
same,Mean difference in human tumor VEGF (%) at Day 14,"human VEGF; Study #23, 1 mg/kg QD",95** %
same,Volume normalized intra-tumor VEGF levels,"human VEGF; treated groups vs vehicle, in words",significantly reduced
same,Lowest dose at which active,HT1080 xenografts; HT1080 xenograft,≤ 0.3 mg/kg
same,Mean difference in tumor growth rate at the Day that the vehicle-treated tumors taken off study (%),"HT1080 xenografts; Study 21, 0.5 mg/kg QD, Day 14",61%**
same,Final mean terminal tumor size in treatment group (mm^3),"HT1080 xenografts; Study 21, 0.5 mg/kg QD, administered 14 days",580 mm^3
same,Mean difference in tumor growth rate at the Day that the vehicle-treated tumors taken off study (%),"HT1080 xenografts; Study 21, 3 mg/kg QD, Day 14",80%**
same,Final mean terminal tumor size in treatment group (mm^3),"HT1080 xenografts; Study 21, 3 mg/kg QD, administered 14 days",379 mm^3
same,"Difference vs. vehicle in median number of days to reach 1000 mm^3,","HT1080 xenografts; Study 22, 0.5 mg/kg QD",11 days
same,Mean difference in tumor growth rate at the Day that the vehicle-treated tumors taken off study (%),"HT1080 xenografts; Study 22, 0.5 mg/kg QD, Day 11",62%**
same,Final mean terminal tumor size in treatment group (mm^3),"HT1080 xenografts; Study 22, 0.5 mg/kg QD, administered 28 days",1750 mm^3
same,"Difference vs. vehicle in median number of days to reach 1000 mm^3, (Days)","HT1080 xenografts; Study 22, 3 mg/kg QD",14** Days
same,Mean difference in tumor growth rate at the Day that the vehicle-treated tumors taken off study (%),"HT1080 xenografts; Study 22, 3 mg/kg QD, Day 11",75%**
same,Final mean terminal tumor size in treatment group (mm^3),"HT1080 xenografts; Study 22, 3 mg/kg QD, administered 32 days",1840 mm^3
same,Mean difference in tumor growth rate at the Day that the vehicle-treated tumors taken off study (%),"HT1080 xenografts; Study 23, 1 mg/kg QD, Day 14",59%**
same,Final mean terminal tumor size in treatment group (mm^3),"HT1080 xenografts; Study 23, 1 mg/kg QD, administered 14 days",710 mm^3
same,"Difference vs. vehicle in median number of days to reach 1000 mm^3, (Days)","HT1080 xenografts; Study 24a, 10 mg/kg QD, Compound 1205 column",14** Days
same,Mean difference in tumor growth rate at the Day that the vehicle-treated tumors taken off study (%),"HT1080 xenografts; Study 24a, 10 mg/kg QD, Day 11, Compound 1205 column",76%**
same,Final mean terminal tumor size in treatment group (mm^3),"HT1080 xenografts; Study 24a, 10 mg/kg QD, administered 30 days",1400 mm^3
same,"Difference vs. vehicle in median number of days to reach 1000 mm^3,","HT1080 xenografts; Study 24b, 0.3 mg/kg QD",0.7 days
same,Mean difference in tumor growth rate at the Day that the vehicle-treated tumors taken off study (%),"HT1080 xenografts; Study 24b, 0.3 mg/kg QD, Day 15",28%
same,Final mean terminal tumor size in treatment group (mm^3),"HT1080 xenografts; Study 24b, 0.3 mg/kg QD, administered 16 days",1540 mm^3
same,Growth of HT1080 tumors in vivo (FIG. 4),"HT1080 xenografts; study #24a, 10 mg/kg QD, in words",significantly delayed growth of HT1080 tumor cells in vivo
same,Murine kidney VEGF levels (FIG. 6),murine kidney VEGF,did not significantly decrease murine kidney VEGF levels
same,"Cell cycle distribution (relative DNA content, FIG. 5)",HT1080 cells,induced a redistribution of the cycling characteristics of the cell population
same,Inhibition of stress-induced VEGF production (FIG. 1),[1],inhibit stress-induced VEGF production
same,EC50,"[1]; Homo sapiens, HeLa",< 8 nM
same,solubility,Solubility in water,~1 µg/mL
same,Bioavailability,[2],bioavailable in vivo
CC(=O)O[C@@]12CO[C@@H]1C[C@H](O)[C@@]1(C)C(=O)[C@H](O)C3=C(C)[C@@H](OC(=O)[C@H](O)[C@@H](NC(=O)OC(C)(C)C)c4ccccc4)C[C@@](O)([C@@H](OC(=O)c4ccccc4)[C@H]21)C3(C)C [docetaxel],PK profile (FIG. 18),[3],consistent with historical data
